Assays:
[1] = Stability in human plasma; assay type: in vitro ADME
Procedure: (§1) Exemplary test compounds (prodrugs) of the invention can be incubated in plasma at 37° C. to test their stability and hydrolysis to give the corresponding drug TENATOPRAZOLE. The concentration of the compounds and also of the corresponding proton pump inhibitor TENATOPRAZOLE can be determined by a gradient HPLC-UV method. Although the half-lives of test compounds in plasma is expected to vary depending on their specific structure, nevertheless it is expected that in plasma the compounds of the invention are converted into the corresponding proton pump inhibitor TENATOPRAZOLE at a rate faster than the hydrolysis rate of the compound at neutral or near neutral pH. […] Therefore the compounds of the invention and especially the preferred compounds which have the chemical structure shown in Formulas 4 and 5 are good candidates to be used as prodrugs in intravenous injection and are expected to release the active proton pump inhibitor in vivo.

[2] = Stability in rat plasma at 37° C., hydrolysis to tenatoprazole; assay type: in vitro ADME
Procedure: as §1

[3] = Stability at physiological pH 7.4 without plasma or blood; assay type: physicochemical
Procedure: as §1

[4] = system: histamine and carbachol-stimulated gastric acid secretion; experiment: Inhibition of gastric acid secretion of the conscious male rat, oral administration; assay type: in vivo; settings: 40 μmole/kg, pylorus ligated 3 hours after administration, gastric juice collected two hours later
Procedure: Male rats (the Sprague-Dawley strain) are used in this assay. Salts of known benzimidazole type proton pump inhibitors, such as OMEPRAZOLE sodium salt, LANSOPRAZOLE sodium salt or TENATOPRAZOLE sodium salt (20 mg) is suspended in 10 ml of 0.1 N NaHCO3. 70 mg of each of the sodium salts of the compounds of the present invention are dissolved in 6 ml of 50% DMSO-50% 50 mM sodium phosphate buffer, pH 7.4. The doses administered to the rats are as follows (μmole per kg body weight of the rat): TENATOPRAZOLE (40 μmole/kg), a mixture of sodium 2-(4-(5-methoxy-2-((4-methoxy-3,5-dimethylpyridin-2-yl)methylsulfinyl)-1H-imidazo[4,5-b]pyridin-1-ylsulfonyl)phenoxy)acetate (Compound 1) and sodium 2-(4-(5-methoxy-2-((4-methoxy-3,5-dimethylpyridin-2-yl)methylsulfinyl)-3H-imidazo[4,5-b]pyridin-3-ylsulfonyl)phenoxy)acetate (1:1 of the isomeric mixture) 20 μmole/kg, and 40 μmole/kg. These drug solutions are orally administered. 3 hours after administration the abdomen of the rat is incised and the pylorus is ligated under light ether anethesia. […] The gastric juice is collected and acid output is quantified by titration using 0.1 N NaOH solution. […] Acid output is quantified by same method as described above, showing maximum histamine and carbachol-stimulated gastric acid secretion. Percentage inhibition is calculated from the fractional responses elicited by the test compound and a control experiment.

[5] = Plasma concentration of tenatoprazole after oral dosing in rats; assay type: in vivo, rat

| half-life [1] [min] | Molecule | half-life in rat plasma [2] [min] | half-life in physiological pH 7.4 without the plasma or blood [3] | inhibition of gastric acid secretion [4] [%] | plasma concentration of tenatoprazole ([5]; male Sprague-Dawley rats, oral 40 μmole/kg, 5 h postdose) [ng/mL] | plasma level and half-life of TENATOPRAZOLE compared with TENATOPRAZOLE itself ([5]; rat, oral) |
| --- | --- | --- | --- | --- | --- | --- |
| 1.35 | COc1ccc2c(n1)nc([S+]([O-])Cc1ncc(C)c(OC)c1C)n2S(=O)(=O)c1ccc(OCC(=O)[O-])cc1.[Na+] (stereo not drawn) [Compound 1, sodium 2-(4-(5-methoxy-2-((4-methoxy-3,5-dimethylpyridin-2-yl)methylsulfinyl)-1H-imidazo[4,5-b]pyridin-1-ylsulfonyl)phenoxy)acetate] |  |  |  |  |  |
|  | sodium 2-(4-(5-methoxy-2-((4-methoxy-3,5-dimethylpyridin-2-yl)methylsulfinyl)-1H-imidazo[4,5-b]pyridin-1-ylsulfonyl)phenoxy)acetate (Compound 1) and sodium 2-(4-(5-methoxy-2-((4-methoxy-3,5-dimethylpyridin-2-yl)methylsulfinyl)-3H-imidazo[4,5-b]pyridin-3-ylsulfonyl)phenoxy)acetate [1:1 mixture of Compound 1 and its positional isomer] | 1.2 | greater than 24 hr | 83.3±13.7 | 1940 ± 1685 | maintains higher plasma level of TENATOPRAZOLE with longer plasma half-life |

From patent US20100317689A1, “Prodrugs of proton pump inhibitors including the 1h-imidazo[4,5-b] pyridine moiety” (priority 2006, published 2010)
